Data: patent US20160051514A1, “METHODS FOR TREATMENT OF CARDIOMYOPATHY” (THE BRIGHAM AND WOMEN'S HOSPITAL, INC., priority 2013, published 2016)
Entries after “also recorded” stand apart in the source; their conditions may differ.

Key:
[1] = tested on: zebrafish ventricular myocytes expressing 2057del2 plakoglobin; assay: INa and IK1 current densities by whole-cell voltage-clamp in zebrafish ventricular myocytes; format: cell-based, zebrafish (Danio rerio); conditions: for Effect on reduced INa and IK1 current densities (summary statements): myocytes expressing 2057del2 plakoglobin, after exposure
Text: (§1) Zebrafish ventricular myocyte isolation and culture: Zebrafish (Danio rerio) were bred and maintained at 28′C with 14 hr exposure to light and 10 hr to dark (day/night cycle) according to IACUC-approved protocols. Hearts were extracted from anesthetized fish at 21-56 days post-fertilization(dpf) using micro-dissecting tweezers (Roboz Surgical Instruments), washed vigorously in culture medium (M199, primocin, HEPES, L-glutamine, 10% fetal bovine serum) and placed in fresh medium. Ventricles were separated at the atrio-ventricular junction, pooled in a tube containing enzyme solution (HBSS without calcium/magnesium, Trypsin, PCN/Streptomycin, HEPES) at 37° C. and agitated in a thermomixer at 1000-1200 RPM. Dissociated cells were collected every 10 min from supernatants and transferred to tubes containing culture medium and 10% fetal bovine srum to halt trypsinization. Cells were then pelleted by centrifugation, resuspended in fresh culture medium, and seeded on sterile cover slips coated with laminin (20 μg/ml)^11 at 28° C. in a 5% CO2 incubator. After 36 hr, culture medium was changed and unattached cells were removed.
INa and INa activation and inactivation were measured by whole-cell voltage-clamp according to standard protocols.^14,15 Cells were held at a membrane potential of −80 mV after which pulses between -120 and +50 mV were applied in 5 mV steps each with a duration of 250 ms. Inactivation was measured from membrane potentials between −120 mV and +50 mV at maximal activation.^14,15 In view of the small cell size (cell capacitance of 6.7±2.6pF; n=47) it was not necessary to reduce extracellular [Nal. Access resistance of the patch electrodes was <7 MΩ Measurements showing incomplete control of membrane potential were eliminated from analysis.^14,15
The inward rectifier current IK1 was measured using the protocol described by Dobrev.^16,17 Ramp clamps of 1400 ms duration were applied between −120 and +20 mV. After each clamp, external solution containing Ba^2+(1 mM) was applied via a large pore pipette placed adjacent to the clamped cell. IK1 was defined as the total current minus the Ba^2+-insensitive current. ^16 Subtraction of the two currents was performed using a MatLab™ script.
as §1, with “culture:” for “culture: Zebrafish (Danio rerio) were bred and maintained at 28′C with 14 hr exposure to light and 10 hr to dark (day/night cycle) according to IACUC-approved protocols.”, “3-4 or 5-7 weeks post-fertilization” for “21-56 days post-fertilization(dpf)”, “(calcium/magnesium free-HBSS containing trypsin, penicillin/streptomycin,” for “(HBSS without calcium/magnesium, Trypsin, PCN/Streptomycin,”, “serum” for “srum”, “μg/ml)” for “μg/ml)^11”, “28.5°” for “28°”
INa activation and inactivation were measured by whole-cell voltage-clamp according to standard protocols (32,33). Cells were held at a membrane potential of −80 mV after which pulses between −120 and +50 mV were applied in 5 mV steps each with a duration of 250 ms. Inactivation was measured from membrane potentials between −120 mV and +50 mV at maximal activation (26,33). In view of the small size of zebrafish myocytes (cell capacitance of 6.7±2.6pF; n=47) it was not necessary to reduce extracellular [Na+] to achieve voltage control; extracellular [Na+] was reduced to 50 mM in studies of neonatal rat ventricular myocytes Access resistance of the patch electrodes was <7 MΩ. Measurements showing incomplete control of membrane potential were eliminated from analysis. […]

[2] = tested on: nppb::luciferase reporter; assay: nppb::luciferase reporter chemical screen in 2057del2 plakoglobin zebrafish embryos; format: in vivo; conditions: 72 hpf, 3 μM in the well between 48 and 72 hpf
Procedure: Chemical screening: Chemicals were dissolved in DMSO (Sigma-Aldrich, St. Louis, Mo., USA). Embryos (double homozygous for the 2057del2 plakoglobin mutation and the nppb::luciferase reporter) were arrayed in 96 well plates in HEPES-buffered E3 medium and small molecules were pin-transferred (200 n1) from arrayed chemical libraries. Positive (untreated wild type nppb::luciferase embryos) and negative controls (untreated 2057del2 plakoglobin/nppb::luciferase fish) were included in each plate. […] Each set of compounds was tested in duplicate to improve the discriminatory power of the assay. After being evaluated for viability, an equal volume of long half-life luciferase reagent (Promega Steady Glo™) was added to each well. The plate was then incubated in the dark for 60 min and activities were measured with a Victor 3™ luminometer (Perkin-Elmer). Each measurement was performed in duplicate and results were normalized to the number of fish in the well. Follow-up chemical treatments were performed in HEPES-buffered E3 medium in petri dishes.

[3] = 3-4 weeks post-fertilization, 2057del2 plakoglobin + SB2
[4] = 3-4 weeks post-fertilization, Control + SB2

With `Cn1cc(C2=C(c3ccc(Cl)cc3Cl)C(=O)NC2=O)c2ccccc21` [SB216763] as the compound, how does the “IK1: current density at −100 mV” value [1, 3] read?
Its value is −15 pA/pF.

And the “IK1: slope between −90 and −15 mV” value [1, 3]?
The value was −21 pA/pF*100 mV.

What about the “INa: peak current density” value [1, 3] of the same compound?
Its value is −163 pA/pF.

And the “IK1: current density at −100 mV” value [1, 4]?
Its value is −18 pA/pF.

What about the “IK1: slope between −90 and −15 mV” value [1, 4] of the same compound?
The value was −27 pA/pF*100 mV.

And the “INa: peak current density” value [1, 4]?
The value was −230 pA/pF.

What about the “INa: peak current density” value ([1]; 7-8 weeks post-fertilization, 2057del2 plakoglobin + SB2) of the same compound?
The value was −172 pA/pF.

What about the “INa: peak current density” value ([1]; 7-8 weeks post-fertilization, Control + SB2) of the same compound?
The value was −168 pA/pF.

What about the “Effect on INa and IK1 current densities in cells expressing 2057del2 plakoglobin” value ([1]; early exposure of embryos) of the same compound?
Its value is “marked normalization of these currents; also recorded: almost completely normalized these currents”.

And the “Effect on INa or IK1 current densities in control myocytes” value ([1]; early exposure of embryos)?
The value was “had no effect”.

And the “Effect on reduced INa and IK1 current densities, short-term exposure of isolated cells” value ([1]; isolated myocytes from transgenic fish treated in culture for 36 hr)?
The value was “reversed reductions in INa and IK1 current densities”.

And the “Effect on reduced INa and IK1 current densities (summary statements)” value [1]?
Its value is “rapidly normalized”.

What about the “Effect on reduced INa and IK1 current densities (summary statements)” value ([1]; listed as SB2168763) of the same compound?
The value was “rapid, near total recovery”.

And the “nppb expression / nppb::luciferase activity” value [2]?
Its value is “normalizer of the nppb response; also recorded: reduced nppb expression”.

And the “nppb expression / nppb::luciferase activity” value ([2]; listed as SB2)?
Its value is “reduced nppb expression”.

What about the “nppb expression / nppb::luciferase activity” value ([2]; listed as SB216736) of the same compound?
The value was “normalized nppb::luciferase activity”.
